Measurements as given in publication PMC5924614 (European journal of medicinal chemistry, 2018).

How the values were obtained:
[1] = biological target: NPM-ALK fusion protein (Homo sapiens, UniProt P06748+Q9UM73); assay: NPM-ALK fusion protein levels in SU-DHL-1 cells by western blot; type: cell-based; details: for duration of NPM-ALK degradation and ALK signaling inhibition / time at which significant (>50%) NPM-ALK degradation was achieved / time of maximum degradation of NPM-ALK / effect on fused ALK (NPM-ALK) protein levels: 30 nM; for duration of NPM-ALK degradation and ALK signaling inhibition / time at which significant (>50%) NPM-ALK degradation was achieved / time of maximum degradation of NPM-ALK: time course; for reduction of the ALK fusion protein levels: 100 nM; for reduction of the ALK fusion protein levels / effect on fused ALK (NPM-ALK) protein levels: 16 h; for hook effect: up to 100 nM degrader
[2] = tolerability in the mouse PK study; details: 50 mg/kg IP
[3] = system: SU-DHL-1 cells; assay: cell death / toxicity observed in SU-DHL-1 cells during blot experiments; type: cell-based
[4] = system: STAT3 tyrosine 705 (Y705) phosphorylation; assay: STAT3 Y705 phosphorylation in SU-DHL-1 cells by western blot; type: cell-based, human; details: for inhibition at 0.1 µM: Homo sapiens, SU-DHL-1, read-out: inhibition of STAT3 Y705 phosphorylation; for treatment time after which p-STAT3 was significantly inhibited: SU-DHL-1 cells, 30 nM, time course
[5] = system: ALK tyrosine 1507 (Y1507) phosphorylation (Y527 in NPM-ALK); assay: ALK Y1507 phosphorylation in SU-DHL-1 cells by western blot; type: cell-based, human; details: for inhibition at 0.1 µM: Homo sapiens, read-out: inhibition of ALK Y1507 phosphorylation; for treatment time after which p-ALK was significantly inhibited: SU-DHL-1 cells, 30 nM, time course
[6] = system: EML4-ALK fusion protein variant 3; details: NCI-H2228 cells; for duration of EML4-ALK degradation and signaling pathway inhibition / time of maximum degradation of EML4-ALK: 60 nM, time course; for reduction of EML4-ALK protein levels / effect on EML4-ALK protein levels: 100 nM, 16 h
[7] = system: NCI-H2228 cells; assay: NCI-H2228 cell proliferation, CellTiter-Glo cell viability assay; type: cell-based, human
[8] = mouse pharmacokinetic; type: in vivo, male Swiss Albino mice; details: single 50 mg/kg IP
[9] = system: ALK downstream signaling (p-ALK, p-STAT3); assay: ALK downstream signaling pathway inhibition in SU-DHL-1 cells by western blot; type: cell-based, human; details: 30 nM
[10] = system: SU-DHL-1 cells; assay: SU-DHL-1 cell proliferation, CellTiter-Glo luminescent cell viability assay; type: cell-based, human; details: 3 days

| Structure (SMILES) | duration of NPM-ALK degradation and ALK signaling inhibition [1] | time at which significant (>50%) NPM-ALK degradation was achieved [1] | time of maximum degradation of NPM-ALK [1] | reduction of the ALK fusion protein levels [1] | hook effect [1] | concentrations leading to significant cell death / toxic to cells [3] | inhibition at 0.1 µM [4] | treatment time after which p-STAT3 was significantly inhibited [4] | inhibition at 0.1 µM [5] | treatment time after which p-ALK was significantly inhibited [5] | duration of EML4-ALK degradation and signaling pathway inhibition [6] | time of maximum degradation of EML4-ALK [6] | reduction of EML4-ALK protein levels [6] | sensitivity of proliferation in comparison with SU-DHL-1 cells [7] | effect on fused ALK (NPM-ALK) protein levels [1] | effect on EML4-ALK protein levels [6] | cell growth inhibition [10] | fold less active than corresponding degrader in signaling pathway inhibition [9] | further results |
| --- | --- | --- | --- | --- | --- | --- | --- | --- | --- | --- | --- | --- | --- | --- | --- | --- | --- | --- | --- |
| Cc1cc(Nc2ncc(Cl)c(Nc3ccccc3S(=O)(=O)C(C)C)n2)c(OC(C)C)cc1C1CCN(CC(=O)NCCNc2cccc3c2C(=O)N(C2CCC(=O)NC2=O)C3=O)CC1 (stereo not shown) [Compound 6, 2-(4-(4-((5-chloro-4-((2-(isopropylsulfonyl)phenyl)amino)pyrimidin-2-yl)amino)-5-isopropoxy-2-methylphenyl)piperidin-1-yl)-N-(2-((2-(2,6-dioxopiperidin-3-yl)-1,3-dioxoisoindolin-4-yl)amino)ethyl)acetamide] | at least 24 hours | 4 h | 16 h | Over 90% | did not observe the “hook effect” | above 100 nM | > 90% | 2 h | > 90% | 2 h | at least 24 hours | 16 h | Over 90% | less sensitive | – | – | – | – | clinical signs [2]: no clinical signs were observed; tolerability [2]: well tolerated; highest plasma concentration [8]: 3,000 nM; time of highest plasma concentration post dosing [8]: 2 h |
| Cc1cc(Nc2ncc(Cl)c(Nc3ccccc3S(=O)(=O)C(C)C)n2)c(OC(C)C)cc1C1CCN(CC(=O)NCCOCCOCCOCCOCCOCCNc2cccc3c2C(=O)N(C2CCC(=O)NC2=O)C3=O)CC1 (stereo not shown) [Compound 5, 2-(4-(4-((5-Chloro-4-((2-(isopropylsulfonyl)phenyl)amino)pyrimidin-2-yl)amino)-5-isopropoxy-2-methylphenyl)piperidin-1-yl)-N-(17-((2-(2,6-dioxopiperidin-3-yl)-1,3-dioxoisoindolin-4-yl)amino)-3,6,9,12,15-pentaoxaheptadecyl)acetamide] | at least 24 hours | 4 h | 16 h | Over 90% | did not observe the “hook effect” | above 100 nM | > 90% | 2 h | > 90% | 2 h | at least 24 hours | 16 h | Over 90% | less sensitive | – | – | – | – | – |
| Cc1cc(Nc2ncc(Cl)c(Nc3ccccc3S(=O)(=O)C(C)C)n2)c(OC(C)C)cc1C1CCNCC1 [ceritinib, reference compound] | – | – | – | – | – | above 100 nM | – | – | – | – | – | – | – | – | did not significantly change | did not significantly affect | – | – | inhibition of downstream signaling compared with the degraders [9]: more potent |
| Cc1cc(Nc2ncc(Cl)c(Nc3ccccc3S(=O)(=O)C(C)C)n2)c(OC(C)C)cc1C1CCN(CC(=O)NCCNc2cccc3c2C(=O)N(C2CCC(=O)N(C)C2=O)C3=O)CC1 (stereo not shown) [Compound 8, 2-(4-(4-((5-chloro-4-((2-(isopropylsulfonyl)phenyl)amino)pyrimidin-2-yl)amino)-5-isopropoxy-2-methylphenyl)piperidin-1-yl)-N-(2-((2-(1-methyl-2,6-dioxopiperidin-3-yl)-1,3-dioxoisoindolin-4-yl)amino)ethyl)acetamide] | – | – | – | – | – | – | – | – | – | – | – | – | – | less sensitive | did not reduce | did not significantly affect | incomplete inhibition | over 10 fold | – |
| Cc1cc(Nc2ncc(Cl)c(Nc3ccccc3S(=O)(=O)C(C)C)n2)c(OC(C)C)cc1C1CCN(CC(=O)NCCOCCOCCOCCOCCOCCNc2cccc3c2C(=O)N(C2CCC(=O)N(C)C2=O)C3=O)CC1 (stereo not shown) [Compound 7, 2-(4-(4-((5-Chloro-4-((2-(isopropylsulfonyl)phenyl)amino)pyrimidin-2-yl)amino)-5-isopropoxy-2-methylphenyl)piperidin-1-yl)-N-(17-((2-(1-methyl-2,6-dioxopiperidin-3-yl)-1,3-dioxoisoindolin-4-yl)amino)-3,6,9,12,15-pentaoxaheptadecyl)acetamide] | – | – | – | – | – | – | – | – | – | – | – | – | – | less sensitive | did not reduce | did not significantly affect | incomplete inhibition | over 10 fold | – |
